The values that follow are results of earlier work, collected in US20240082136A1, “TOPICAL COMPOSITION” (LILIGER LTD., priority 2021, published 2024).

Series [1] relates to stratum corneum / dry skin. Conditions: topical treatment.
For another series, the system named is cutaneous vasodilation. The settings on record: in vivo.

Take `Cl.N=C(N)NCCC[C@H](N)C(=O)O` [arginine hydrochloride]: in series [1], the “Clinical symptoms of dry skin” value is given as “improvement”, the Skin moisture entry was “increase” and the “Urea in the stratum corneum” value was “significantly increase”.
On to botulinum toxin A, for which, in the series with cutaneous vasodilation, the Cutaneous vasodilation result was “eliminates”.
